9 molecules from US20100272680A1, “Piperidinyl Cyclic Amido Antiviral Agents” (priority 2009, published 2010) can be followed below.

Holding throughout (assay type): cell-based
One assay concerns HCV replicon. Put plainly: Replicon assay (Table 2, genotype not stated). Conditions: Hepatitis C virus, Table 2, first measurement, luciferase activity after 48 hours. As for the experimental part: Compounds were assayed for activity against HCV using the genotype 1a and 1b subgenomic replicon model systems. Stable cell lines bearing the genotype 1a and 1b replicons were used for screening of compounds. Both replicons are bicistonic and contain the firefly luciferase gene. The ET cell line is stably transfected with RNA transcripts harboring a I389luc-ubi-neo/NS3-3′/ET replicon with firefly luciferase-ubiquitin-neomycin phosphotransferase fusion protein and EMCV-IRES driven NS3-5B polyprotein containing the cell culture adaptive mutations (E1202G; T12801; K1846T) (Krieger at al, 2001 and unpublished). The genotype 1a replicon is a stable cell line licensed from Apath LLC, modified to contain the firefly luciferase gene. The cells were grown in DMEM, supplemented with 10% fetal calf serum, 2 mM Glutamine, Penicillin (100 IU/mL)/Streptomycin (100 μg/mL), 1× nonessential amino acids, and 250-500 μg/mL G418 (“Geneticin”). They were all available through Life Technologies (Bethesda, Md.). The cells were plated at 0.5×10^4 cells/well in 384 well plates containing compounds. The final concentration of compounds ranged between 0.03 μM to 50 μm and the final DMSO concentration of 0.5-1%.
Luciferase activity was measured 48 hours later by adding a Steady glo (Promega, Madison, Wis.). Percent inhibition of replication data was plotted relative to no compound control. Under the same condition, cytotoxicity of the compounds was determined using cell titer glo (Promega, Madison, Wis). IC50s were determined from a 10 point dose response curve using 3-4-fold serial dilution for each compound, which spans a concentration range >1000 fold. BioAssay determines the level of inhibition for each compound by normalizing cross-talk corrected plate values against the negative […] controls to determine Percent Inhibition:
These normalized values are exported to EC50 where they are plotted against the molar compound concentrations using the standard four parameter logistic equation: […]
Some EC50 measurements were repeated a second time and for both 1A and 1B genotypes after those reported in Table 2 for compounds 101-108 and the repeated data was reported in Table 3.
In general terms: A replicon is a self-replicating genome or part of one, used to study replication in cells.

In another assay the test system is HCV Genotype 1A Replicon. Put plainly: Replicon assay, genotype 1a subgenomic replicon, luciferase readout. The note with it: Hepatitis C virus, 48 h, Table 3; luciferase activity after 48 hours. A digest of the protocol: (§1)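 EC50 values came from four-parameter logistic fits of 10-point dose responses (3–4-fold steps, final 0.03–50 μM, 0.5–1% DMSO), normalized against no-compound and no-cell controls. Firefly luciferase was read 48 h after plating 0.5×10^4 replicon cells/well, 1b ET or 1a Apath-derived line.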

In a further assay the test system is HCV Genotype 1B Replicon. Kind of assay: Replicon assay, genotype 1b subgenomic replicon (ET cell line), luciferase readout. The note with it: Hepatitis C virus, 48 h, Table 3; luciferase activity after 48 hours. A digest of the protocol:
as §1

By EC50 is commonly meant the concentration at which the effect is half-maximal. A high value points to weaker potency.

With `O=C(c1nc2c(C(F)(F)F)cc(-c3ccoc3)cn2c1Cl)N1CCC(N2CCCC2=O)CC1` [Compound 101, 1-[1-(3-Chloro-6-furan-3-yl-8-trifluoromethyl-imidazo[1,2-a]pyridine-2-carbonyl)-piperidin-4-yl]-pyrrolidin-2-one], the EC50 in the assay with HCV replicon was found to be 57 nM.
`O=C(c1nc2c(C(F)(F)F)cc(-c3cn[nH]c3)cn2c1Cl)N1CCC(N2CCCC2=O)CC1` [Compound 102, 1-{1-[3-Chloro-6-(1H-pyrazol-4-yl)-8-trifluoromethyl-imidazo[1,2-a]pyridine-2-carbonyl]-piperidin-4-yl}-pyrrolidin-2-one]: in the assay with HCV replicon, a half-maximal effect (EC50) was put at 683 nM.
With `O=C(c1nc2c(C(F)(F)F)cc(-c3ccoc3)cn2c1Cl)N1CCC(N2CCOC2=O)CC1` [Compound 103, 3-[1-(3-Chloro-6-furan-3-yl-8-trifluoromethyl-imidazo[1,2-a]pyridine-2-carbonyl)-piperidin-4-yl]-oxazolidin-2-one], the figures for the EC50 in the assay on HCV Genotype 1A Replicon, in the assay on HCV Genotype 1B Replicon and with HCV replicon were 10 nM, 20 nM and 26 nM, respectively.
`O=C(c1nc2c(C(F)(F)F)cc(-c3ccccc3)cn2c1Cl)N1CCC(N2CCOC2=O)CC1` [Compound 104, 3-[1-(3-Chloro-6-phenyl-8-trifluoromethyl-imidazo[1,2-a]pyridine-2-carbonyl)-piperidin-4-yl]-oxazolidin-2-one] returned an EC50 in the assay on HCV replicon of 283 nM.
In the case of `O=C(c1nc2c(C(F)(F)F)cc(Br)cn2c1Cl)N1CCC(N2CCOC2=O)CC1` [Compound 105, 3-[1-(6-Bromo-3-chloro-8-trifluoromethyl-imidazo[1,2-a]pyridine-2-carbonyl)-piperidin-4-yl]-oxazolidin-2-one], the results for the EC50 in the assay on HCV Genotype 1A Replicon, with HCV Genotype 1B Replicon and with HCV replicon were 30 nM, 40 nM and 71 nM, respectively.
As to `C=C(C)c1cc(C(F)(F)F)c2nc(C(=O)N3CCC(N4CCOC4=O)CC3)c(Cl)n2c1` [Compound 106, 3-[1-(3-Chloro-6-isopropenyl-8-trifluoromethyl-imidazo[1,2-a]pyridine-2-carbonyl)-piperidin-4-yl]-oxazolidin-2-one], the 50% effective concentration (EC50) in the assay on HCV Genotype 1A Replicon is 10 nM; in the assay with HCV Genotype 1B Replicon, 20 nM; with HCV replicon it was 5 nM.
The molecule `O=C(c1nc2c(C(F)(F)F)cc(C3=CCCC3)cn2c1Cl)N1CCC(N2CCOC2=O)CC1` [Compound 107, 3-[1-(3-Chloro-6-cyclopent-1-enyl-8-trifluoromethyl-imidazo[1,2-a]pyridine-2-carbonyl)-piperidin-4-yl]-oxazolidin-2-one] gave an EC50 with HCV replicon of 16 nM.
Turning to `O=C(c1nc2c(C(F)(F)F)cc(-c3cn[nH]c3)cn2c1Cl)N1CCC(N2CCOC2=O)CC1` [Compound 108, 3-{1-[3-Chloro-6-(1H-pyrazol-4-yl)-8-trifluoromethyl-imidazo [1,2-a]pyridine-2-carbonyl]-piperidin-4-yl}-oxazolidin-2-one], the values for the EC50 in the assay with HCV Genotype 1A Replicon, in the assay with HCV Genotype 1B Replicon and with HCV replicon were 20 nM, 130 nM and 213 nM, respectively.
Turning to `N#Cc1cc(C(F)(F)F)c2nc(C(=O)N3CCC(N4CCOC4=O)CC3)c(Cl)n2c1` [Compound 239, 3-chloro-2-{[4-(2-oxo-1,3-oxazolidin-3-yl)-1-piperidinyl]carbonyl}-8-(trifluoromethyl)imidazo[1,2-a]pyridine-6-carbonitrile], the EC50 amounted to 800 nM with HCV Genotype 1A Replicon and 7940 nM with HCV Genotype 1B Replicon.
